Data published in patent publication US20150065421A1, “BASAL INSULIN THERAPY” (SANOFI, priority 2012, published 2015).

Legend:
[1] = cited from earlier work
[2] = system: people at high risk for vascular disease with either IFG, IGT, or early type 2 diabetes; test: ORIGIN trial: glycemic control (FPG, A1C); type: in vivo, human
Excerpt: Participants were asked to self-administer daily subcutaneous saline injections and to check their capillary glucose levels during a 10 day run-in period. Adherent participants were then provided with lifestyle advice and randomly allocated to either insulin glargine (Lantus™) or standard approaches to glycaemic control. Participants allocated to insulin glargine who were also taking a thiazolidinedione stopped that medication at the time of randomization; otherwise the insulin glargine was added to their glycemic regimen. These participants were instructed to inject insulin glargine in the evening, starting at 2, 4 or 6 units (depending on their initial FPG) and to increase the dose at least once per week targeting a self-measured FPG level ≦5.3 mmol/l (95 mg/dl) and ≧4 mmol/l (72 mg/dl). […] If participants developed uncontrolled hyperglycemia, investigators were permitted to add rapid-acting insulin. No other glucose-lowering medication could be added or increased. FPG levels were measured in the local laboratory at every visit and the results were regularly reviewed along with the dose of insulin to ensure that insulin was being effectively trirated. People not diagnosed with diabetes by the time of the penultimate study visit down-titrated insulin glargine by 10 units per day and stopped any metformin that was prescribed.
Outcomes and other data were collected at scheduled study visits at 0.5, 1, 2, and 4 months after randomization and every 4 months thereafter. Weight, waist and hip circumference were measured annually. HbA1c levels were assayed in local laboratories at every visit for the first year and then annually in people without diabetes and every 4 months for people with diabetes. A first morning urine collection was sent centrally and assayed for creatinine and albumin at baseline, 2 yrs and study end.
Participants assigned to standard therapy continued their prior oral therapies and were managed according to the investigators' judgement and local guidelines for glycemic control and therapeutic approaches. Investigators were advised not to prescribe insulin for standard participants unless they were on full doses of 2 or more oral agents. If insulin was added glargine was not to be used. Participants assigned to basal insulin glargine who were taking a thiazolidinedione prior to randomization stopped this medication but continued to take other glucose-lowering agents. Insulin glargine (Lantus®, Sanofi) was added to their regimen starting at 2 to 6 units daily, based on fasting glucose levels. Participants were advised to inject the insulin in the evening and to self-titrate the dosage using a simple algorithm supported by the site investigators. Self-measured, plasma-referenced fasting capillary blood glucose tests were done at least twice-weekly to guide titration, with the goal of achieving and maintaining fasting glucose 5.3 mmol/l (≦95 mg/dl). Other oral agents could be continued, reduced, or discontinued as judged appropriate during treatment with insulin glargine. The only oral agent that could be added (if not previously used) was metformin, which the site investigator initiated for individual participants at doses of 500-1000 mg/day if judged necessary to limit the risk of hypoglycemia. The importance of lifestyle management was continuously reinforced in both treatment groups.
In addition to self-measured glucose tests, venous blood for measurement of fasting plasma glucose (FPG) and A1C at local laboratories was collected at intervals during treatment. In the case of A1C, measurements were done at baseline, yearly thereafter, and at the end of treatment for all participants. Measurements of FPG were done annually and at the end of treatment for all participants in the glargine treatment group, and at baseline, after 2 years, and at the end of treatment for those using standard therapy. […]

[3] = system: people at high risk for vascular disease with either IFG, IGT, or early type 2 diabetes; test: ORIGIN trial: cognition outcomes (Mini-Mental Status Exam); type: in vivo, human
Excerpt: Defined by serial cognitive testing (e.g., mini-mental status examination [MMSE]).
Overall, there was a strong trend (p=0.075) for glargine treatment to be associated with fewer impaired patients. The data, as summarized in Table 7, reflect the Mini-Mental Status Exam (MMSE) data for the number of participants scoring 24 or less at various timepoints (mild impairment). These patients were examined because they represent those at greater risk of further deterioration during the study, and still with enough patients to confer adequate power to make statistical comparisons. There was a significant reduction of cases of mild impairment from baseline at about 4 years.

[4] = fully adjusted logistic regression, glargine vs standard care, p<0.001
[5] = participants with diabetes, 2 years
[6] = participants with diabetes, 5 years
[7] = participants with diabetes, 7 years
[8] = participants without diabetes, 5 years
[9] = without diabetes at entry, throughout randomized treatment, both regimens

(Gly A21) Arg (B31) Arg (B32) human insulin [insulin glargine]
mean duration of action ([1]; in vivo): approximately 20 hours | duration of glucose lowering effect ([1]; smooth, without a definite peak): 24 h | A1c (%), median (interquartile range) ([2]; Year 1, baseline 6.4): 5.9 (5.5, 6.4) % | FPG (mM), median (interquartile range) ([2]; Year 1, baseline 6.9): 5.2 (4.6, 5.9) mM | A1c (%), median (interquartile range) ([2]; Year 2): 6.0 (5.5, 6.5) % | FPG (mM), median (interquartile range) ([2]; Year 2): 5.0 (4.4, 5.8) mM | A1c (%), median (interquartile range) ([2]; Year 3): 6.0 (5.6, 6.6) % | FPG (mM), median (interquartile range) ([2]; Year 3): 5.0 (4.4, 5.7) mM | A1c (%), median (interquartile range) ([2]; Year 4): 6.1 (5.7, 6.7) % | FPG (mM), median (interquartile range) ([2]; Year 4): 5.1 (4.5, 5.8) mM | A1c (%), median (interquartile range) ([2]; Year 5): 6.2 (5.7, 6.8) % | FPG (mM), median (interquartile range) ([2]; Year 5): 5.1 (4.5, 6.0) mM | A1c (%), median (interquartile range) ([2]; Year 6): 6.3 (5.8, 6.8) % | FPG (mM), median (interquartile range) ([2]; Year 6): 5.2 (4.6, 6.1) mM | A1c (%), median (interquartile range) ([2]; Year 7): 6.2 (5.8, 7.1) % | FPG (mM), median (interquartile range) ([2]; Year 7): 5.2 (4.5, 6.3) mM | increase in the likelihood of maintaining mean A1C below 6.5% for 5 years ([2]; allocation to basal insulin glargine vs standard care): 2-3 fold | participants achieving a FPG level ≦5.2 mmol/l ([2]; by 1 year, maintained throughout the trial): 50% | participants achieving A1C <6.5% ([2]; diabetic subgroup, 1 year, 47% before treatment): 74% | participants achieving A1C <7.0% ([2]; diabetic subgroup, 1 year, 66% before treatment): 88% | participants achieving A1C <7.0% ([2]; diabetic subgroup, 5 years): 77% | participants achieving A1C <6.5% ([2]; diabetic subgroup, after 5 years): 60% | people achieving FPG levels below 5.3 mmol/l (95 mg/dl) ([2]; for most of the trial): more than 50% | people achieving FPG levels ≦6.0 mmol/l (108 mg/dl) ([2]; for most of the trial): 75% | OR (95% CI), 1-year A1C 6.5% (attainment) [2, 4]: 2.50 (2.29-2.74) | OR (95% CI), 1-year A1C 7.0% (attainment) [2, 4]: 2.735 (2.440-3.067) | OR (95% CI), 5-year mean A1C 6.5% (maintenance) [2, 4]: 2.98 | OR (95% CI), 5-year mean A1C 7.0% (maintenance) [2, 4]: 2.408 (2.122-2.732) | OR (95% CI), 5-year mean A1C 6.5% (maintenance) ([2]; fully adjusted logistic regression, glargine vs standard care, p<0.001, listed as Glargine): 2.975 (2.671-3.315) | median A1C (inter-quartile range) ([2]; participants with diabetes, 1 year, baseline 6.5): 6.0 (5.5-6.5) % | median FPG (inter-quartile range) ([2]; participants with diabetes, 1 year, baseline 7.2): 5.2 (4.6-5.9) mmol/l | median A1C (inter-quartile range) [2, 5]: 6.0 (5.6-6.6) % | median FPG (inter-quartile range) [2, 5]: 5.0 (4.4-5.8) mmol/l | median A1C (inter-quartile range) [2, 6]: 6.3 (5.8-6.9) % | median FPG (inter-quartile range) [2, 6]: 5.1 (4.5-6.1) mmol/l | median A1C (inter-quartile range) [2, 7]: 6.3 (5.8-6.9) % | median FPG (inter-quartile range) [2, 7]: 5.3 (4.5-6.4) mmol/l | median A1C ([2]; participants without diabetes, 1 year, baseline 5.7): 5.6% | median FPG (inter-quartile range) ([2]; participants without diabetes, 1 year, baseline 6.1): 5.0 (4.5-5.5) mmol/l | median FPG (inter-quartile range) ([2]; participants without diabetes, 2 years): 4.9 (4.5-5.5) mmol/l | median A1C [2, 8]: 5.8% | median FPG (inter-quartile range) [2, 8]: 5.0 (4.5-5.7) mmol/l | median FPG (inter-quartile range) ([2]; participants without diabetes, 7 years): 5.1 (4.5-5.8) mmol/l | participants achieving A1C <6.5% [2, 9]: more than 75% | participants achieving A1C <7.0% [2, 9]: more than 90% | participants scoring 24 or less in MMSE (mild impairment), N (%) ([3]; 2 years, P 0.823 vs standard, baseline 483 (7.7)): 433 (7.6) N (%) | participants scoring 24 or less in MMSE (mild impairment), N (%) ([3]; Any measure, P 0.075 vs standard): 605 (10.4) N (%) | participants scoring 24 or less in MMSE (mild impairment), N (%) ([3]; End of study, P 0.358 vs standard): 464 (9.6) N (%) | participants scoring 24 or less in MMSE (mild impairment), N (%) ([3]; ~4 years, P 0.022 vs standard): 449 (9.0) N (%)
